According to article PMC8730469 (Bioorganic & Medicinal Chemistry Letters, 2022):

How the values were obtained:
SARS-CoV-2 M^pro [1] = molecular target: T1, SARS-CoV-2 M^pro (Severe acute respiratory syndrome coronavirus 2, UniProt P0DTD1); format: biochemical
SARS-CoV-2 M^pro [2] = molecular target: T1, SARS-CoV-2 M^pro; assay: fast dilution experiment; conditions: Fig. S1 and Table S1

Compound	inhibitory activity (in words) (SARS-CoV-2 M^pro [1])	reversibility of inhibition (SARS-CoV-2 M^pro [2])
Nc1cccc2c(=O)n(CC(=O)Nc3ccccc3)sc12 [Compound 16b-17]	decreased the activity drastically	
O=C(O)Cn1sc2cc(F)ccc2c1=O [Compound 13a]	reduced dramatically	
O=C(Cn1sc2c(C(F)(F)F)cccc2c1=O)Nc1ccccc1 [Compound 16b-13]	decreased the activity drastically	
O=C(Cn1sc2cccc(F)c2c1=O)Nc1ccccc1 [Compound 16b-3]		irreversible inhibitor
COc1cccc2c(=O)n(CC(=O)Nc3ccccc3)sc12 [Compound 16b-9]	decreased the activity drastically	
O=c1[nH]sc2cc(F)ccc12 [Compound 3a]	reduced dramatically	
